Experimental data from patent publication US20090028969A1, “Compostion for treating skin” (priority 2006, published 2009).

Tests used:
[1] = system: normal human epidermal melanocytes (line M99-1H6); experiment: Intracellular melanin content of UVB-stimulated human cultured melanocytes; type: cell-based; conditions: With UV; for PA (pigmenting activity): vs irradiated control
Description: In order to evaluate the activity on pigmentation, an in vitro experiment, based on the measurement of intracellular melanin content of human cultured melanocytes exposed (UVB-stimulated) or not exposed to radiation, in the absence and in the presence of the test compound, was conducted. […] Normal human epidermal melanocytes from newborn foreskin were cultured at […] in MGM “serum free” medium (Melanocyte Growth Medium, PromoCell®) supplemented with antibiotics. Cultures were maintained at 37° C. in a humidified 5% CO2 atmosphere. Subcultures of human melanocytes were propaged in MGM medium and used just before reaching confluence. Cells were counted and diluted to the desired concentration in culture medium without calf serum. The cultured melanocytes were placed in 24-well plates at a density of 60×10^3 cells per well. Two plates were seeded with cells: one for the measurement of melanin content (“Melanin plate”) and the other for the measurement of cell densities (“Neutral Red” plate). […] Cells were incubated at 37° C., in a 95% air-5% CO2 atmosphere for eight days. During this period cells were exposed to UVB radiation at day 1 (D1), day 2 (D2), day 3 (D3), day 4 (D4), day 7 (D7) and day 8 (D8). UVB radiation exposure was carried out with a parallel bank of T[…]/12 tubes emitting a continuous spectrum between 280 and 320 nm with a peak emission at 312 nm. A UVB dose of 40 mJ/cm^2 was applied at each exposure. Sham-control cells were subjected to the same procedure, but without UV exposure and without treatment. Before exposure, cell monolayers were washed with pre-warmed Phosphate Buffer Solution (PBS) and then exposed to UVB in the presence of PBS (without test product). Immediately after irradiation PBS was replaced by fresh test medium. After treatment the culture medium was removed. The cells were washed with PBS at pH 6.8 and melanin was extracted by adding NaOH-DMSO solution. Melanin extracts were heated at 80° C. for 2 hours. After cooling, aliquots were added in 96-well microplates. Optical density (OD 450 nm) was recorded at 450 nm with a microplate reader (Dynatech MR 5000). Synthetic melanin standards (Sigma) were incubated at the same conditions. This standard curve allowed the transformation of OD 450 nm into the Melanin Unit Equivalent in each well. Melanin content was measured by absorbance at […] in control and treated melanin extracts. Results were expressed as μg melanin per well determined from the standard curve: DO(450 nm)=f([melanin]). Intracellular melanin content was measured on human normal melanocytes (line […]-1H6) after the formerly described treatment and UVB exposures of cultures. […] The melanin content (μg of melanin per well) was corrected by the cellular density of each respective culture (number of cells per well) in order to express the “Pigmentation level” of cells (expressed in pg melanin/cell). The pigmenting activity (PA) of the test product was calculated according the formula: [formula]

mushroom tyrosinase = conditions: enzymatic mushroom tyrosinase assay, literature; cited from earlier work

Row | SMILES | Melanin content ([1]; 1 μg/ml) | PA (pigmenting activity) ([1]; 1 μg/ml) | Melanin content ([1]; 5 μg/ml) | PA (pigmenting activity) ([1]; 5 μg/ml) | Melanin content ([1]; 10 μg/ml) | PA (pigmenting activity) ([1]; 10 μg/ml) | Melanin content ([1]; 50 μg/ml) | PA (pigmenting activity) ([1]; 50 μg/ml) | Melanin content ([1]; 100 μg/ml) | PA (pigmenting activity) ([1]; 100 μg/ml) | anti-tyrosinase IC50 (mushroom tyrosinase)
1 | O=c1cc(-c2ccc(O)c(O)c2)oc2cc(O)cc(O)c12 [Luteolin, 3′,4′,5,7-Tetrahydroxyflavone] | 57.56 +/− 0.0 pg melanin/well | −22% (p < 0.01) | 55.57 +/− 0.0 pg melanin/well | −25% (p < 0.01) | 54.84 +/− 1.56 pg melanin/well | −26% (p < 0.01) | – | – | – | – | –
2 | C[C@@H]1O[C@@H](O[C@@H]2[C@@H](O)[C@H](OCCc3ccc(O)c(O)c3)O[C@H](CO)[C@H]2OC(=O)/C=C/c2ccc(O)c(O)c2)[C@H](O)[C@H](O)[C@H]1O [Verbascoside, 2-(3′,4′-dihydroxyphenyl)ethyl-O-α-1-rhamnopyranosyl-(1→3)-β-d-(4-O-caffeoyl)-glucopyranoside] | – | – | – | – | – | −20% (p < 0.01) | 58.32 +/− 4.44 pg melanin/well | −21% (p < 0.01) | 57.80 +/− 1.63 pg melanin/well | −22% (p < 0.01) | –
3 | OCC1O[C@@H](Oc2ccc(O)cc2)C(O)C(O)[C@@H]1O (stereo partly drawn) [arbutin, hydroquinone β-d-glucopyranoside] | – | – | – | – | – | – | – | – | – | – | about 100 μg/ml
